Read-outs that look alike come from different tables or passages of the source.
Key:
DDR1 [1] = biological target: T1, DDR1 (Homo sapiens, UniProt Q08345); test: RBC radiometric HotSpot kinase assay, DDR1; conditions: for inhibition at 10 µM: read-out: % Inhibition at 10 μM (SEM) DDR1
Experimental: (§4) All compounds in this study were tested against DDR1 and DDR2 at a 10 µM dose at Reaction Biology Corporation (RBC, Malvern, PA, USA) employing the radiometric HotSpot Kinase assay protocol (Table 1).

DDR2 = biological target: T2, DDR2 (Homo sapiens, UniProt Q16832); test: RBC radiometric HotSpot kinase assay, DDR2; conditions: for inhibition at 10 µM: read-out: % Inhibition at 10 μM (SEM) DDR2
T2 sequence (Q16832 22-855): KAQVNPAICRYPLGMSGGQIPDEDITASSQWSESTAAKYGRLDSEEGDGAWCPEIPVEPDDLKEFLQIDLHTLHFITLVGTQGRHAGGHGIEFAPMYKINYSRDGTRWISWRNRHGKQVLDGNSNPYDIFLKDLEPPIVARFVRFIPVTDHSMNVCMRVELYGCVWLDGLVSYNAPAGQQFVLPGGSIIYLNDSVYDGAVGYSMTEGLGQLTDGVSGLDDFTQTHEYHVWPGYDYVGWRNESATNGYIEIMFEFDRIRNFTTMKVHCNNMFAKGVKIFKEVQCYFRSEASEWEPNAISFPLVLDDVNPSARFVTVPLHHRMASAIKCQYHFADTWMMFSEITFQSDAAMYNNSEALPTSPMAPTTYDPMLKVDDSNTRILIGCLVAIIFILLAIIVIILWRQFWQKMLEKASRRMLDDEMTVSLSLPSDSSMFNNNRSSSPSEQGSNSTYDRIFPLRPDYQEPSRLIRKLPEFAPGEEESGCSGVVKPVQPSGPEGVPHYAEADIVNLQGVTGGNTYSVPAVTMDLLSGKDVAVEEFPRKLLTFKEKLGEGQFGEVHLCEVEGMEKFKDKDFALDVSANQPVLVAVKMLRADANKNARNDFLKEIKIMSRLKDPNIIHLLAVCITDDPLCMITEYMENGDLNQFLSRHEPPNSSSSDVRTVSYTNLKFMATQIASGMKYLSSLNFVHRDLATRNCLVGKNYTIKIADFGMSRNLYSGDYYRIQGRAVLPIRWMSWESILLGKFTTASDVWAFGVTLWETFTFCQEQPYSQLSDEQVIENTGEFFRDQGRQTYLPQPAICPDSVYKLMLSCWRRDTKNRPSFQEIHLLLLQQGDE
Experimental: as §4

[2] = tested on: MCF-7 breast cancer cells; test: NCI SRB antiproliferative assay, MCF-7; type: cell-based; conditions: Homo sapiens, MCF7; read-out: % Growth inhibition at 10 µM MCF-7
Experimental: (§1) Six members, 3a, 3g–j, and 3q, out of the investigated compounds were further evaluated for their antiproliferative effects against human cancer cell lines, including leukemia (K562), colon cancer (HCT116), non-small cell lung (NSCL) cancer (A549, NCI-H23 and NCI-H460), and breast cancer (MCF-7 and T47D) cells. The tested cell lines’ choice depended on their elevated DDR1 expression levels. The cell lines were all treated with a 10 µM concentration of the tested compounds, and the results were expressed as the percentage of growth inhibition (%GI) (Table 4).
(§2) Inhibition of the tumor relevant carbonic anhydrases IX and XII may be one of these additional mechanisms.
(§3) The evaluation of the antiproliferative activities of compounds 3a, 3g–j, and 3q over a panel of DDR1-dependent cell lines was conducted employing the sensitive Sulforhodamine B (SRB) assay at the National Cancer Institute (NCI), Bethesda, Maryland, USA, following the standard protocol.

[3] = tested on: NCI-H460 non-small cell lung cancer cells; test: NCI SRB antiproliferative assay, NCI-H460; type: cell-based; conditions: Homo sapiens, read-out: % Growth inhibition at 10 µM NCI-H460
Experimental: as §1, §2, §3

K562 leukemia cells = test: NCI SRB antiproliferative assay, K562; type: cell-based; conditions: Homo sapiens, read-out: % Growth inhibition at 10 µM K562
Experimental: as §1, §2, §3

[4] = tested on: HCT116 colon cancer cells; test: NCI SRB antiproliferative assay, HCT116; type: cell-based; conditions: Homo sapiens, HCT-116; read-out: % Growth inhibition at 10 µM HCT116
Experimental: as §1, §2, §3

T47D breast cancer cells [5] = test: NCI SRB antiproliferative assay, T47D; type: cell-based; conditions: Homo sapiens, read-out: % Growth inhibition at 10 µM T47D
Experimental: as §1, §2, §3

[6] = tested on: A549 non-small cell lung cancer cells; test: NCI SRB antiproliferative assay, A549; type: cell-based; conditions: Homo sapiens, read-out: % Growth inhibition at 10 µM A549
Experimental: as §1, §2, §3

[7] = tested on: NCI-H23 non-small cell lung cancer cells; test: NCI SRB antiproliferative assay, NCI-H23; type: cell-based; conditions: Homo sapiens, read-out: % Growth inhibition at 10 µM NCI-H23
Experimental: as §1, §2, §3

DDR1 [8] = biological target: T1, DDR1; set-up: purchased Reaction Biology Corporation (RBC, Malvern, PA, USA); conditions: cited from earlier work
[9] = tested on: HCT116 colon cancer cells; conditions: reported data ref 20; cited from earlier work
T47D breast cancer cells [10] = conditions: reported data ref 20; cited from earlier work
[11] = tested on: A549 non-small cell lung cancer cells; conditions: reported data ref 20; cited from earlier work

T1 sequence (Q08345 19-913): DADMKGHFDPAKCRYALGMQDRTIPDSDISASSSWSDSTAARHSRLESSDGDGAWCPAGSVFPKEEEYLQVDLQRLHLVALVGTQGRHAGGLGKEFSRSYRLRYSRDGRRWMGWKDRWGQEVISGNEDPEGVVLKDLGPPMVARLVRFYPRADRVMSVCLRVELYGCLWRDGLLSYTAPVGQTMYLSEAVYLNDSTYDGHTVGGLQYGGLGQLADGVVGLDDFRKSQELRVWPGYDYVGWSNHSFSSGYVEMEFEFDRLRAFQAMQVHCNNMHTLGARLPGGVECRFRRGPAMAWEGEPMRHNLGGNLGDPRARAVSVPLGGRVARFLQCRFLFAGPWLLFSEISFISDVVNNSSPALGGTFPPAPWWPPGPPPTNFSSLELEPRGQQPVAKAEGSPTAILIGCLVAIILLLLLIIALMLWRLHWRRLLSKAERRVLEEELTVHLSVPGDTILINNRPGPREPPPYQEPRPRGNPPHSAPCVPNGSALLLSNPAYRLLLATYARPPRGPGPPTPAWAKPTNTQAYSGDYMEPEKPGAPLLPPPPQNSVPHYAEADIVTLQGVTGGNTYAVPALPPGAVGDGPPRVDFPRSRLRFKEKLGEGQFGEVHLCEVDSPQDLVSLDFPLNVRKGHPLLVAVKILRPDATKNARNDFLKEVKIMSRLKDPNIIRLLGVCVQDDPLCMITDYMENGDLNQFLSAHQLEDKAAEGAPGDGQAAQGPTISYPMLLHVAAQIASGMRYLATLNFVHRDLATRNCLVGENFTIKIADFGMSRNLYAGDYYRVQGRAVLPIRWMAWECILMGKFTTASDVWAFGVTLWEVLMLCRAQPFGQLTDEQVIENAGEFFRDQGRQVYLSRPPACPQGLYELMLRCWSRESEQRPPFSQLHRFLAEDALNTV

| SMILES | inhibition at 10 µM (DDR1 [1]) [%] | inhibition at 10 µM (DDR2) [%] | other results |
| --- | --- | --- | --- |
| Cc1cccc(Cl)c1NC(=O)Nc1ccc2oc(=O)ccc2c1 [Compound 3o] | 15.7 | -1.4 |  |
| O=C(Nc1cccc(C(F)(F)F)c1)Nc1ccc2oc(=O)ccc2c1 [Compound 3a] | 92.7 | 83.6 | inhibition at 10 µM [2]: 29.2%; inhibition at 10 µM [3]: 15.8%; inhibition at 10 µM (K562 leukemia cells): 33.2%; IC50 (DDR1 [1]): 321 nM; SI: Selectivity index (IC50 DDR2/IC50 DDR1) (DDR1 [1]; DDR1 over DDR2): 7.5; inhibition at 10 µM [4]: 20.9%; IC50 (DDR2): 2390 nM; inhibition at 10 µM (T47D breast cancer cells [5]): 24.6%; inhibition at 10 µM [6]: 10.4%; inhibition at 10 µM [7]: 13.2% |
| CCN1CCN(Cc2ccc(NC(=O)Nc3nc4ccc(Oc5ccnc(C(=O)NC)c5)cc4s3)cc2C(F)(F)F)CC1 [KST016366] |  |  | IC50 (DDR1 [8]): 26.5 nM |
| CCN1CCN(Cc2ccc(C(=O)Nc3ccc(C)c(Oc4ccc5c(c4)CC(=O)N5)c3)cc2C(F)(F)F)CC1 [DDR1-IN-1] |  |  | GI50 [9]: 8700 nM; GI50 (T47D breast cancer cells [10]): > 10000 nM; GI50 [11]: > 10000 nM; IC50 (DDR2): 59.7 nM |
| O=C(Nc1ccc(C(F)(F)F)cc1)Nc1ccc2oc(=O)ccc2c1 [Compound 3b] | 24.5 | 11.7 |  |
| CCCCc1ccc(NC(=O)Nc2ccc3oc(=O)ccc3c2)cc1 [Compound 3e] | 15.4 | 3.07 |  |
| Cc1cc(C)cc(NC(=O)Nc2ccc3oc(=O)ccc3c2)c1 [Compound 3k] | 33.8 | 17.3 |  |
| O=C(Nc1cccc(Cl)c1)Nc1cc2ncncc2cc1OCc1cccc(F)c1 [KST9046] |  |  | IC50 (DDR1 [8]): 4380 nM |
| CCCCOc1ccc(NC(=O)Nc2ccc3oc(=O)ccc3c2)cc1 [Compound 3f] | 10.6 | 5.52 |  |
| O=C(Nc1ccc2oc(=O)ccc2c1)Nc1c(Br)cc(F)cc1Br [Compound 3p] | 15 | 17.1 |  |

The next lines start with results.

| inhibition at 10 µM (DDR1 [1]) [%] | inhibition at 10 µM (DDR2) [%] | SMILES | other results |
| --- | --- | --- | --- |
| 12.6 | 6.06 | O=C(Nc1ccc2oc(=O)ccc2c1)c1cc(C(F)(F)F)cc(C(F)(F)F)c1 [Compound 4b] |  |
| 5.82 | 3.77 | O=C(Nc1ccc2oc(=O)ccc2c1)c1ccc(Cl)c(C(F)(F)F)c1 [Compound 4a] |  |

— publication PMC11054573, “Identification of Ureidocoumarin-Based Selective Discoidin Domain Receptor 1 (DDR1) Inhibitors via Drug Repurposing Approach, Biological Evaluation, and In Silico Studies” (Pharmaceuticals, 2024)
